# US20220062240A1, “METHODS OF TREATING CANCER USING A CLK INHIBITOR” (BioSplice Therapeutics, Inc., priority 2018, published 2022)
# Like-named read-outs stand apart in the source and are kept apart here.
# Key:
# Type in all cases: cell-based
# T47D = assay: CellTiter-Glo Viability Assay, breast cancer; conditions: Homo sapiens, 96 h, breast cancer, four days, read-out: EC50
# Method: (§1) Fifty-one human cancer cell lines (breast cancer (8 cell lines), colorectal cancer (6 cell lines), haematopoietic & lymphoid tumors (13 cell lines), liver cancer (3 cell lines), lung cancer (4 cell lines), ovarian cancer (4 cell lines), pancreatic cancer (8 cell lines), and prostate cancer (5 cell lines)) were tested to determine the effects of representative compounds of Formulas (I)-(XII) on cellular proliferation, as evaluated using the CellTiter-Glo® Viability Assay.
# (§2) For the Cell Viability Assays, cells were plated at 300-3,000 cells/well in 384-well plates in their respective media containing 1% Penicillin-Streptomycin and incubated for four days at 37° C. and 5% CO2. Twenty-eight replicates of DMSO-treated cells served as controls and cells treated with compound were performed in duplicate.
# (§3) After incubation, 10 μL of CellTiter-Glo® (Promega) was added to each well allowed to incubate for approximately 12 minutes. This reagent results in cell lysis and generation of a luminescent signal proportional to the amount of ATP present. The amount of ATP is directly proportional to the number of metabolically active, viable cells present in culture. The CellTiter-Glo® Assay generates a luminescent signal, produced by the luciferase reaction (Promega.com).
# (§4) After incubation, the luminescence signal was read using an EnVision™ Multilabel Plate Reader (Perkin Elmer). Dose-response curves were generated and EC50 concentration values were calculated using Dotmatics' Studies Software (Bishops Stortford, UK).
# BT-549 = assay: CellTiter-Glo Viability Assay, breast cancer; conditions: Homo sapiens, 96 h; BT-549, breast cancer, four days; read-out: EC50
# Method: as §1, §2, §3, §4
# MDA-MB-231-Luc = assay: CellTiter-Glo Viability Assay, breast cancer; conditions: Homo sapiens, 96 h; MDA-MB-231-Luc, breast cancer, four days; read-out: EC50
# Method: as §1, §2, §3, §4
# DU4475 = assay: CellTiter-Glo Viability Assay, breast cancer; conditions: Homo sapiens, DU-4475, 96 h; DU4475, breast cancer, four days; read-out: EC50
# Method: as §1, §2, §3, §4
# CAMA1 = assay: CellTiter-Glo Viability Assay, breast cancer; conditions: Homo sapiens, CAMA-1, 96 h; CAMA1, breast cancer, four days; read-out: EC50
# Method: as §1, §2, §3, §4
# HCC1599 = assay: CellTiter-Glo Viability Assay, breast cancer; conditions: Homo sapiens, 96 h; HCC1599, breast cancer, four days; read-out: EC50
# Method: as §1, §2, §3, §4
# ZR-75-1 = assay: CellTiter-Glo Viability Assay, breast cancer; conditions: Homo sapiens, 96 h; ZR-75-1, breast cancer, four days; read-out: EC50
# Method: as §1, §2, §3, §4
# MCF7 = assay: CellTiter-Glo Viability Assay, breast cancer; conditions: Homo sapiens, 96 h; MCF7, breast cancer, four days; read-out: EC50
# Method: as §1, §2, §3, §4
# [1] = tested on: lung cancer (4 cell lines); assay: CellTiter-Glo Viability Assay, lung cancer; conditions: Homo sapiens, inhibition of cancer cell proliferation
# Method: as §1, §2, §3, §4
# [2] = tested on: pancreatic cancer (8 cell lines); assay: CellTiter-Glo Viability Assay, pancreatic cancer; conditions: Homo sapiens, inhibition of cancer cell proliferation
# Method: as §1, §2, §3, §4
# [3] = tested on: ovarian cancer (4 cell lines); assay: CellTiter-Glo Viability Assay, ovarian cancer; conditions: Homo sapiens, inhibition of cancer cell proliferation
# Method: as §1, §2, §3, §4
# all 50 cell lines = assay: CellTiter-Glo Viability Assay, average across all cell lines; conditions: Homo sapiens; across all 50 cell lines; read-out: average EC50 for inhibition of cancer cell proliferation
# Method: as §1, §2, §3, §4
# [4] = tested on: prostate cancer (5 cell lines); assay: CellTiter-Glo Viability Assay, prostate cancer; conditions: Homo sapiens
# Method: as §1, §2, §3, §4
# [5] = tested on: colorectal cancer (6 cell lines); assay: CellTiter-Glo Viability Assay, colorectal cancer; conditions: Homo sapiens, inhibition of cancer cell proliferation
# Method: as §1, §2, §3, §4
# [6] = tested on: haematopoietic & lymphoid tumors (13 cell lines); assay: CellTiter-Glo Viability Assay, haematopoietic & lymphoid tumors; conditions: Homo sapiens, inhibition of cancer cell proliferation
# Method: as §1, §2, §3, §4
# [7] = tested on: liver cancer (3 cell lines); assay: CellTiter-Glo Viability Assay, liver cancer; conditions: Homo sapiens, inhibition of cancer cell proliferation
# Method: as §1, §2, §3, §4
structure (smiles),measurement,setting,value
CN(C)Cc1cncc(-c2cnc3[nH]nc(-c4nc5c(-c6cc(F)cc(N7CCOCC7)c6)cncc5[nH]4)c3c2)c1 [Compound 46],EC50,T47D,2360 nM
same,EC50,BT-549,1170 nM
same,EC50,MDA-MB-231-Luc,2090 nM
same,EC50,DU4475,4010 nM
same,EC50,CAMA1,2740 nM
same,EC50,HCC1599,1170 nM
same,EC50,ZR-75-1,1680 nM
same,EC50,MCF7,> 10000 nM
same,EC50,"[1]; A-427, A427 cell line, read-out: Lung cancer, EC50 (μM) A427",0.591 µM
same,EC50,"[1]; HCC78, HCC-78 cell line, read-out: Lung cancer, EC50 (μM) HCC-78",4.68 µM
same,EC50,"[1]; NCI-H460 cell line, read-out: Lung cancer, EC50 (μM) NCI-H460",> 10 µM
same,EC50,"[1]; NCI-H522 cell line, read-out: Lung cancer, EC50 (μM) NCI-H522",0.417 µM
same,EC50,"[2]; BXPC-3, BxPC3 cell line, read-out: Pancreatic cancer, EC50 BxPC3",6080 nM
same,EC50,"[2]; CAPAN-1, Capan1 cell line, read-out: Pancreatic cancer, EC50 Capan1",2370 nM
same,EC50,"[2]; Capan-2, Capan2 cell line, read-out: Pancreatic cancer, EC50 Capan2",4980 nM
same,EC50,"[2]; MIA PaCa-2 cell line, read-out: Pancreatic cancer, EC50 MIA PaCa-2",414 nM
same,EC50,"[2]; PANC 05.04 cell line, read-out: Pancreatic cancer, EC50 PANC 05.04",5400 nM
same,EC50,"[2]; PANC-1 cell line, read-out: Pancreatic cancer, EC50 PANC-1",> 10000 nM
same,EC50,"[2]; UPAFII cell line, read-out: Pancreatic cancer, EC50 UPAFII",1970 nM
same,EC50,"[3]; PA-1, PA1 cell line, read-out: Ovarian cancer, EC50 (μM) PA1",0.795 µM
same,EC50,"[3]; TOV112D, TOV-112D cell line, read-out: Ovarian cancer, EC50 (μM) TOV-112D",0.713 µM
same,EC50,"[3]; OV-90 cell line, read-out: Ovarian cancer, EC50 (μM) OV-90",5.69 µM
same,EC50,"[3]; OVCAR-3 cell line, read-out: Ovarian cancer, EC50 (μM) OVCAR-3",0.302 µM
same,EC50,all 50 cell lines,2860 nM
same,EC50,"[4]; DU-145, read-out: Prostate cancer EC50 Du-145",2570 nM
same,EC50,"[4]; PC-3, PC3 cell line, inhibition of cancer cell proliferation, read-out: Prostate cancer EC50 PC3",1180 nM
same,EC50,"[4]; 22Rv1 cell line, inhibition of cancer cell proliferation, read-out: Prostate cancer EC50 22Rv1",968 nM
same,EC50,"[4]; LNCap clone FGC cell line, inhibition of cancer cell proliferation, read-out: Prostate cancer EC50 LNCap clone FGC",7780 nM
same,EC50,"[4]; VCaP (Sigma) cell line, inhibition of cancer cell proliferation, read-out: Prostate cancer EC50 VCaP (Sigma)",4540 nM
same,EC50,"[5]; HCT-116, HCT116 cell line, read-out: Colorectal cancer, EC50 (μM) HCT116",0.86 µM
same,EC50,"[5]; HT-29, HT29 cell line, read-out: Colorectal cancer, EC50 (μM) HT29",8.89 µM
same,EC50,"[5]; SW-620, SW620 cell line, read-out: Colorectal cancer, EC50 (μM) SW620",0.473 µM
same,EC50,"[5]; DLD-1 cell line, read-out: Colorectal cancer, EC50 (μM) DLD-1",2.35 µM
same,EC50,"[5]; SW48 cell line, read-out: Colorectal cancer, EC50 (μM) SW48",0.469 µM
same,EC50,"[5]; SW480 cell line, read-out: Colorectal cancer, EC50 (μM) SW480",0.491 µM
same,EC50,"[6]; DND41, DND-41 cell line, read-out: Haematopoietic & Lymphoid tumors, EC50 (μM) DND-41",0.432 µM
same,EC50,"[6]; MV4-11, MV-4-11 cell line, read-out: Haematopoietic & Lymphoid tumors, EC50 (μM) MV-4-11",0.039 µM
same,EC50,"[6]; Rec1, REC-1 cell line, read-out: Haematopoietic & Lymphoid tumors, EC50 (μM) REC-1",2.78 µM
same,EC50,"[6]; SU-DHL-4, SUDHL4 cell line, read-out: Haematopoietic & Lymphoid tumors, EC50 (μM) SUDHL4",0.398 µM
same,EC50,"[6]; HL-60 cell line, read-out: Haematopoietic & Lymphoid tumors, EC50 (μM) HL-60",1.42 µM
same,EC50,"[6]; JM1 cell line, read-out: Haematopoietic & Lymphoid tumors, EC50 (μM) JM1",0.176 µM
same,EC50,"[6]; JURKAT, Clone E6-1 cell line, read-out: Haematopoietic & Lymphoid tumors, EC50 (μM) JURKAT, Clone E6-1",3.17 µM
same,EC50,"[6]; JeKo-1 cell line, read-out: Haematopoietic & Lymphoid tumors, EC50 (μM) JeKo-1",0.182 µM
same,EC50,"[6]; KASUMI-1 cell line, read-out: Haematopoietic & Lymphoid tumors, EC50 (μM) KASUMI-1",0.801 µM
same,EC50,"[6]; Loucy cell line, read-out: Haematopoietic & Lymphoid tumors, EC50 (μM) Loucy",0.466 µM
same,EC50,"[6]; MOLT-4 cell line, read-out: Haematopoietic & Lymphoid tumors, EC50 (μM) MOLT-4",2.96 µM
same,EC50,"[6]; TF-1 cell line, read-out: Haematopoietic & Lymphoid tumors, EC50 (μM) TF-1",6.09 µM
same,EC50,"[6]; TOLEDO cell line, read-out: Haematopoietic & Lymphoid tumors, EC50 (μM) TOLEDO",0.17 µM
same,EC50,"[7]; SNU-398, SNU398 cell line, read-out: Liver cancer, EC50 SNU398",174 nM
same,EC50,"[7]; HEPG2 cell line, read-out: Liver cancer, EC50 HEPG2",3590 nM
same,EC50,"[7]; PLC/PRF/5 cell line, read-out: Liver cancer, EC50 PLC/PRF/5",> 10000 nM
